Measurements as given in patent US7732449B2, “Inhibitors of cathepsin S” (IRM LLC, priority 2003, dated 2010).

Legend:
Assay type in all cases: biochemical
Cathepsin L = Cathepsin L (Homo sapiens, UniProt P07711); assay: Cathepsin L inhibition, fluorogenic peptide substrate kinetic assay (selectivity); details: ratio of cathepsin L inhibition constant to cathepsin S inhibition constant
Cathepsin B = Cathepsin B (Homo sapiens, UniProt P07858); assay: Cathepsin B inhibition, fluorogenic peptide substrate kinetic assay (selectivity); details: ratio of cathepsin B inhibition constant to cathepsin S inhibition constant;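 note: value is the cathepsin B inhibition constant divided by the cathepsin S one, each from kinetic fluorescence readings (ex 380 nm, em 450 nm) of a 10 µM coumarin peptide substrate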
Cathepsin K = target: T1, Cathepsin K (Homo sapiens, UniProt P43235); assay: Cathepsin K inhibition, fluorogenic peptide substrate kinetic assay (selectivity); details: ratio of cathepsin K inhibition constant to cathepsin S inhibition constant
T1 sequence (P43235 115-329): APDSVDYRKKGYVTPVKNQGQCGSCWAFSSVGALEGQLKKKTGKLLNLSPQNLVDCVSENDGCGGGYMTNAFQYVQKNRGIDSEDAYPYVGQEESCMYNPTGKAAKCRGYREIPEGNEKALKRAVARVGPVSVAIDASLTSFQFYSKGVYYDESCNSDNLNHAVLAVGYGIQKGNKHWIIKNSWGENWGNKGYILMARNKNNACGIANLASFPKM

Cathepsin S = Cathepsin S (Homo sapiens, UniProt P25774); assay: Cathepsin S inhibition, fluorogenic peptide substrate kinetic assay;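 note: cleavage rate of a coumarin-labelled peptide substrate (50 µM) read as fluorescence increase at Ex 380 nm and Em 450 nm, relative to inhibitor-free control reactions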; details: Cathepsin S inhibition constant; pH5.5, 20 minutes preincubation at room temperature; read-out: Ki Cat. S
Chain of Cathepsin S (P25774 115-331, species assumed): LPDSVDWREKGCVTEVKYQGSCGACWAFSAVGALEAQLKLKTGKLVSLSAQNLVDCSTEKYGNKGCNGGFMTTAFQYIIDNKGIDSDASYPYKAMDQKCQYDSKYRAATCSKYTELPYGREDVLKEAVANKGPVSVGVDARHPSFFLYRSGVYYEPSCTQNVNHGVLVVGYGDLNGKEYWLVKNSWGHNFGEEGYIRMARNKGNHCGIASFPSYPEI

Chain of Cathepsin L (P07711 114-333, species assumed): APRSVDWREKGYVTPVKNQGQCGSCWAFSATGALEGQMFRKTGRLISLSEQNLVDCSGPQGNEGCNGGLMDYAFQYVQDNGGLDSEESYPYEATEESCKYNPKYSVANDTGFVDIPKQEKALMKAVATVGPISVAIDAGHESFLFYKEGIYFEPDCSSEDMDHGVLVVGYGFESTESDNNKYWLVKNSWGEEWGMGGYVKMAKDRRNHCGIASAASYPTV

Row | Structure (SMILES) | Selectivity for Cat. S over Cat. L (Cathepsin L) | Selectivity for Cat. S over Cat. B (Cathepsin B) | Selectivity for Cat. S over Cat. K (Cathepsin K) | Ki (Cathepsin S)
1 | Cc1cc(NC[C@H](C)NC(=O)[C@H](CC2CCCCC2)NC(=O)N2CCOCC2)no1 [Example 77, Morpholine-4-carboxylic acid {2-cyclohexyl-1-(S)-[1-(S)-methyl-2-(5-methyl-isoxazol-3-ylamino)-ethylcarbamoyl]-ethyl}-amide] | + (+, >10) | ++ (++, >100) | + (+, >10) | 100 to 1000 nM
2 | C[C@@H](CN1CC(C)(C)c2cc(F)ccc21)NC(=O)[C@H](CC1CCCCC1)NC(=O)N1CCOCC1 [Example 80, (S,S)-Morpholine-4-carboxylic acid {2-cyclohexyl-1-[2-(5-fluoro-3,3-dimethyl-2,3-dihydro-indol-1-yl)-1-methyl-ethylcarbamoyl]-ethyl}-amide] | + (+, >10) | +++ (+++, >1000) | +++ (+++, >1000) | < 100 nM
3 | CC1(C)CN(C[C@@H](NC(=O)[C@H](CC2CCCCC2)NC(=O)N2CCOCC2)C2CC2)c2ccc(F)cc21 [Example 81, Morpholine-4-carboxylic acid {2-cyclohexyl-1-(S)-[1-(S)-cyclopropyl-2-(5-fluoro-3,3-dimethyl-2,3-dihydro-indol-1-yl)-ethylcarbamoyl]-ethyl}-amide] | + (+, >10) | +++ (+++, >1000) | ++ (++, >100) | < 100 nM
4 | CC(=O)NS(=O)(=O)c1ccc(NC[C@H](C)NC(=O)O[C@@H](CC2CCCCC2)C(=O)N2CCOCC2)cc1 [Example 89, [2-(4-Acetylsulfamoyl-phenylamino)-1-(S)-methyl-ethyl]-carbamic acid 1-(S)-cyclohexylmethyl-2-morpholin-4-yl-2-oxo-ethyl ester] | + (+, >10) | + (+, >10) | + (+, >10) | 1000 to 10000 nM
5 | Cc1cc(NC[C@H](C)NC(=O)O[C@@H](CC2CCCCC2)C(=O)N2CCOCC2)no1 [Example 91, [1-(S)-Methyl-2-(5-methyl-isoxazol-3-ylamino)-ethyl]-carbamic acid 1-(S)-cyclohexylmethyl-2-morpholin-4-yl-2-oxo-ethyl ester] | + (+, >10) | + (+, >10) | + (+, >10) | 1000 to 10000 nM
6 | CC[C@@H](CN1CC(C)(C)c2cc(F)ccc21)NC(=O)O[C@@H](CC1CCCCC1)C(=O)N1CCOCC1 [Example 92, (S,S)-[1-(5-Fluoro-3,3-dimethyl-2,3-dihydro-indol-1-yl-methyl)-propyl]-carbamic acid 1-cyclohexylmethyl-2-morpholin-4-yl-2-oxo-ethyl ester] | +++ (+++, >1000) | +++ (+++, >1000) | +++ (+++, >1000) | < 100 nM
7 | CC(=O)N1CCN(C(=O)[C@H](CC2CCCCC2)OC(=O)N[C@@H](C)CN2c3ccc(F)cc3CC2(C)C)CC1 [Example 94, (S,S)-[2-(5-Fluoro-2,2-dimethyl-2,3-dihydro-indol-1-yl)-1-methyl-ethyl]-carbamic acid 2-(4-acetyl-piperazin-1-yl)-1-cyclohexylmethyl-2-oxo-ethyl ester] | + (+, >10) | + (+, >10) | + (+, >10) | 1000 to 10000 nM
8 | C[C@@H](CN1c2ccc(F)cc2CC1(C)C)NC(=O)O[C@@H](CC1CCCCC1)C(=O)N1CCN(S(C)(=O)=O)CC1 [Example 95, [2-(5-Fluoro-2,2-dimethyl-2,3-dihydro-indol-1-yl)-1-(S)-methyl-ethyl]-carbamic acid 1-(S)-cyclohexylmethyl-2-(4-methanesulfonyl-piperazin-1-yl)-2-oxo-ethyl ester] | + (+, >10) | + (+, >10) | + (+, >10) | 1000 to 10000 nM
9 | C[C@@H](CN1c2ccc(F)cc2CC1(C)C)NC(=O)O[C@@H](CC1CCCCC1)C(=O)N1CCSCC1 [Example 96, [2-(5-Fluoro-2,2-dimethyl-2,3-dihydro-indol-1-yl)-1-(S)-methyl-ethyl]-carbamic acid 1-(S)-cyclohexylmethyl-2-oxo-2-thiomorpholin-4-yl-ethyl ester] | + (+, >10) | + (+, >10) | + (+, >10) | 1000 to 10000 nM
10 | CC(C)[C@@H](CN1CC(C)(C)c2cc(F)ccc21)NC(=O)O[C@@H](CS(=O)(=O)Cc1ccccc1)C(=O)N1CCOCC1 [Example 110, [1-(S)-(5-Fluoro-3,3-dimethyl-2,3-dihydro-indol-1-ylmethyl)-2-methyl-propyl]-carbamic acid 2-morpholin-4-yl-2-oxo-1-(R)-phenylmethanesulfonylmethyl-ethyl ester] | + (+, >10) | + (+, >10) | + (+, >10) | 1000 to 10000 nM
11 | CC(C)[C@@H](CN1CC(C)(C)c2cc(F)ccc21)NC(=O)O[C@H](C(=O)N1CCOCC1)C1CCCCC1 [Example 111, [1-(S)-(5-Fluoro-3,3-dimethyl-2,3-dihydro-indol-1-ylmethyl)-2-methyl-propyl]-carbamic acid 1-(S)-cyclohexyl-2-morpholin-4-yl-2-oxo-ethyl ester] | ++ (++, >100) | +++ (+++, >1000) | + (+, >10) | < 100 nM
